Data on four molecules can be found in publication PMC6270149, “Bioactive Flavone-C-Glycosides of the African Medicinal Plant Biophytum umbraculum” (Molecules, 2013).

Read-outs that look alike come from different tables or passages of the source. A value given as a limit tells only on which side of the number the result lay.

One may read the IC50 as the concentration that gives 50% inhibition.

A short description of one test: DPPH radical scavenging. Conditions: triplicates, mean ± SD; for IC50: isolated compounds dissolved in DMSO. The procedure: Pure substances and crude extracts (Soxhlet) were dissolved in DMSO, and the assay was carried out as reported previously. Quercetin (Sigma-Aldrich) was used as positive control.
For a further test, the target named is xanthine oxidase (XO) (Bos taurus, UniProt P80457). Description: Inhibition of xanthine oxidase (XO). Type of test: biochemical. The settings on record: isolated compounds dissolved in DMSO; triplicates, mean ± SD. The method, then: (§1) Pure substances and crude extracts (Soxhlet) were dissolved in DMSO, and the assay was carried out as reported previously.
xanthine oxidase (XO), sequence (P80457 whole entry): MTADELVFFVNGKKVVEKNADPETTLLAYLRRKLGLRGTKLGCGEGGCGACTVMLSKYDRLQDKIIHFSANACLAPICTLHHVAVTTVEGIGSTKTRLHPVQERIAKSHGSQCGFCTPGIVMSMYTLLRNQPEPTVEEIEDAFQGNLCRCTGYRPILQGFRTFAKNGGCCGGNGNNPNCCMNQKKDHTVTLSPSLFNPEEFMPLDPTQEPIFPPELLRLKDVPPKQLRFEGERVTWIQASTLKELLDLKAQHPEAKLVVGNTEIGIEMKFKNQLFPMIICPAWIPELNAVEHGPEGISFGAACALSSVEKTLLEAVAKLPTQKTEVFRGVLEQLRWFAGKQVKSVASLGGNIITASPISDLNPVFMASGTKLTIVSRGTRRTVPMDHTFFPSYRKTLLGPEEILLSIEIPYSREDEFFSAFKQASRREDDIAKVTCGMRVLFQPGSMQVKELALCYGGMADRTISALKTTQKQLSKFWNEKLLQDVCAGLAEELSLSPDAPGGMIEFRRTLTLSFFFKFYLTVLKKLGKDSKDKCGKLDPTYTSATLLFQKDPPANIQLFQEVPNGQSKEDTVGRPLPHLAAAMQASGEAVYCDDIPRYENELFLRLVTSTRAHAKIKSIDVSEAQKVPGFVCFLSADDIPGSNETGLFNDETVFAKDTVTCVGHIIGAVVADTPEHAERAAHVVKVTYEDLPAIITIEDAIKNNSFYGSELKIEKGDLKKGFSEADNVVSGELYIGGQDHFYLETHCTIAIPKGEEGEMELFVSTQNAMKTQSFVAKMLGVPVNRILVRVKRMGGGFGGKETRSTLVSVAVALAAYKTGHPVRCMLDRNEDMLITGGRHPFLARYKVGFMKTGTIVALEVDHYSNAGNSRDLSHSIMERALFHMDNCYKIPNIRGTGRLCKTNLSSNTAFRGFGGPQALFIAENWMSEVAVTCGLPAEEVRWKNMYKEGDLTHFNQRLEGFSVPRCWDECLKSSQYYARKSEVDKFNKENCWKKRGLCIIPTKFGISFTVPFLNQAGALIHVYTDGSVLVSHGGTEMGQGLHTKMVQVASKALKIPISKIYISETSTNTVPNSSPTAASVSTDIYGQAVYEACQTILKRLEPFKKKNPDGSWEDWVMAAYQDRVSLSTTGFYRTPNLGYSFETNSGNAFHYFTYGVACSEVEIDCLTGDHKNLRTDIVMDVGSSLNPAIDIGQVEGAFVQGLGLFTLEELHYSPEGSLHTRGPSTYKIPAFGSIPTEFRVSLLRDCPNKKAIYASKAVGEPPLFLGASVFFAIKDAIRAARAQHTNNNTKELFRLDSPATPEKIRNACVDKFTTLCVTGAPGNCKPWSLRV
A further test concerns the target T1, 15-lipoxygenase (15-LO) (Glycine max, UniProt P08170).
T1 sequence (P08170 1-839): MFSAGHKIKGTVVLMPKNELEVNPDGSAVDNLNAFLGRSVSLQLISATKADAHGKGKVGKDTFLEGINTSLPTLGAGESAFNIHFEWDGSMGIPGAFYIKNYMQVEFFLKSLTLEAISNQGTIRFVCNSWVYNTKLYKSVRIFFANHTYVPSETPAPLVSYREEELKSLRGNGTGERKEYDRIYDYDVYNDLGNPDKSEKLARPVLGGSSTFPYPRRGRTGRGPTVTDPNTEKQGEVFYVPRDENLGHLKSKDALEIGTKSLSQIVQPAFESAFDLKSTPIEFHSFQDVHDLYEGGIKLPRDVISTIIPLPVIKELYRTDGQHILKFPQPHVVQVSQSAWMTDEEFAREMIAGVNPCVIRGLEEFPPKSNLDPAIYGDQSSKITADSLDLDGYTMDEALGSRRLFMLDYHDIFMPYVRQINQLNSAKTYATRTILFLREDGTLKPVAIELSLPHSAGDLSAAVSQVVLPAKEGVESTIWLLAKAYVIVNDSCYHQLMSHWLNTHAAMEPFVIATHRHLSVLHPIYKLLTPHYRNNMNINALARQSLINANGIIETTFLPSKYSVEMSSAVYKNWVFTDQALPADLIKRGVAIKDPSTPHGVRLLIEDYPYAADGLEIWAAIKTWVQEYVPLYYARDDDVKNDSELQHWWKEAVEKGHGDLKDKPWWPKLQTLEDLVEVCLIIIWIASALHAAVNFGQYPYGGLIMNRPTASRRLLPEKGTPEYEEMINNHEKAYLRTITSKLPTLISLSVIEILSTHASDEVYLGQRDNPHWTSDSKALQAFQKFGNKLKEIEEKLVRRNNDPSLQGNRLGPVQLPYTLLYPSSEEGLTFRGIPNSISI
Description: Inhibition of 15-lipoxygenase (15-LO). It counts as biochemical. Conditions: isolated compounds dissolved in DMSO, triplicates, mean ± SD. The method, then: as §1

The mark [1] stands for this setting: read-out: 15-lipoxygenase (15-LO) inhibition IC50 ± SD.

For `O=c1cc(-c2ccc(O)c(O)c2)oc2cc(O)c([C@@H]3O[C@H](CO)[C@@H](O)[C@H](O)[C@H]3O)c(O)c12` [Isoorientin (3), isoorientin], the IC50 in the test “DPPH radical scavenging” was 18.1 ± 1.1 µM; on xanthine oxidase (XO) it was 117 ± 13.5 µM; against 15-lipoxygenase (15-LO) (15-lipoxygenase (15-LO) inhibition IC50 ± SD), 86.4 ± 0.5 µM.

For `O=c1cc(-c2ccc(O)cc2)oc2cc(O)c([C@@H]3O[C@H](CO)[C@@H](O)[C@H](O)[C@H]3O)c(O)c12` [Isovitexin (2), isovitexin], the IC50 in “DPPH radical scavenging” was 96 ± 3.6 µM; against xanthine oxidase (XO), over 167 µM; on 15-lipoxygenase (15-LO) (setting [1]), 107 ± 2.1 µM.

In the case of `C[C@@H]1O[C@@H](O[C@H]2C(=O)[C@@H](O)[C@H](C)O[C@@H]2c2c(O)cc3oc(-c4ccc(O)cc4)cc(=O)c3c2O)[C@H](O)[C@H](O)[C@H]1O` [Cassiaoccidentalin A (1), cassiaoccidentalin A], the IC50 in the test “DPPH radical scavenging” was over 167 µM; on xanthine oxidase (XO), 150 ± 7.4 µM; on 15-lipoxygenase (15-LO) (setting [1]), 99.9 ± 2.5 µM.

Turning to `O=c1c(O)c(-c2ccc(O)c(O)c2)oc2cc(O)cc(O)c12` [Quercetin, reference compound], in “DPPH radical scavenging” (extracts (Soxhlet) dissolved in DMSO), the “DPPH radical scavenging IC50 ± SD” value is on record as 4.4 ± 0.4 µg/mL. The molecule also came in with an IC50 in the test “DPPH radical scavenging” of 13.7 ± 1.3 µM.
